Patent publication US7494821B2, “Fluorescein based sensors for tracking nitric oxide in live cells” (Massachusetts Institute of Technology, priority 2005, dated 2009)

Key:
HeLa cells = experiment: Control imaging in HeLa cells; format: cell-based
Experimental: We investigated the ability of Cu(FL5) to detect NO produced in SK-N-SH human neuroblastoma cells under physiological conditions, since constitutive NO synthase (“cNOS”) in this cell line can be activated by estrogen to produce NO. Estrogen administration leads to an increase in the cytosolic Ca(II) concentration that alters the structure of calmodulin, which in turn activates cNOS. The NO-dependent fluorescence response, monitored after simultaneous administration of 17β-estradiol (100 nM) and Cu(FL5) (1 μM) to the cells, was completed within 5 min with a 4.0±0.6-fold increase in fluorescence (FIGS. 5a and b). […] As another control, HeLa cells were co-treated with 17β-estradiol (100 nM) and Cu(FL5) (1 μM).
To investigate further the origin of fluorescence detected by Cu(FL5), iNOS was silenced in Raw 264.7 cells by short hairpin RNA (shRNA)-induced RNA interference (RNAi) (FIG. 6b).
Raw 264.7, SK-N-SH, and HeLa cells were purchased from the American Type Culture Collection (ATCC). […] The expression of iNOS in Raw 264.7 cells was analyzed by Western blot on the extracts of cells stimulated by LPS and INF-γ. The protein was silenced by short hairpin RNA-induced RNAi and the resulting cell lines were used in fluorescence imaging by Cu(FL5).

[1] = test system: mixture of Raw 264.7 and SK-N-SH cells; experiment: NO imaging in Raw 264.7 and SK-N-SH co-culture; format: cell-based; conditions: 17β-estradiol (100 nM) and Cu(FL5) (1 μM) for 10 min
Experimental: FIG. 9 illustrates NO detection in SK-N-SH and Raw 264.7 cells by Cu(FL5). Cells were treated with Cu(FL5) (1 μM) and 17β-estradiol (500 nM) for 10 min. The media were subsequently removed and the cells washed with PBS. Images were taken with a Nikon Eclipse TS100 microscope.
The fluorescence response was also monitored in a mixture of Raw 264.7 and SK-N-SH cells grown on the same plate and co-treated with 17β-estradiol (100 nM) and Cu(FL5) (1 μM) for 10 min.

SK-N-SH cells = experiment: MTT cytotoxicity assay on SK-N-SH cells; format: cell-based, human
Experimental: To test the toxicity of Cu(FL5), a MTT [3-(4,5-dimethylthiazol-2-yl)-2,5-diphenyltetrazolium bromide] assay was performed on SK-N-SH cells after 5 days of incubation with Cu(FL5) (1 μM).
Thus, both Cu(FL5) and FL5−NO are not toxic under the conditions used here for bioimaging of NO.
(§1) Raw 264.7, SK-N-SH, and HeLa cells were purchased from the American Type Culture Collection (ATCC). All three cell lines were maintained in Dulbecco's modified Eagles' media (DMEM) (GibcoBRL) containing 10% (v/v) heat-inactivated fetal bovine serum (FBS) (HyClone), 1 mM sodium pyruvate (Sigma), 100 units/ml penicillin, 100 μg/ml streptomycin (Invitrogen), and 0.1 mM nonessential amino acid solution for minimal essential medium (Sigma). All cells were grown at 37° C. in a humidified atmosphere of 10% CO2. A nitrite assay was performed with Griess reagents (Promega) on Raw 264.7 cells grown in DMEM free of phenol red. Calcium sensor fluo-4 AM was purchased from Invitrogen. MTT [3-(4,5-dimethylthiazol-2-yl)-2,5-diphenyltetrazolium bromide] (Sigma-Aldrich) assay was described in Supplementary information. The expression of iNOS in Raw 264.7 cells was analyzed by Western blot on the extracts of cells stimulated by LPS and INF-γ. The protein was silenced by short hairpin RNA-induced RNAi and the resulting cell lines were used in fluorescence imaging by Cu(FL5).

Raw 264.7 cells = experiment: MTT cytotoxicity assay on Raw 264.7 cells; format: cell-based, murine; conditions: Cu(FL5) 1 μM, 5 days
Experimental: as §1

[2] = Cell membrane passage in live cell studies; format: cell-based
Description: In summary, we have synthesized a Cu(II)-based fluorescein compound Cu(FL5) for imaging NO based on redox chemistry. Reduction of Cu(FL5) by NO to Cu(I) with nitrosation of the FL5 ligand is accompanied by bright visible light emission. […] Studies of Cu(FL5) in pH 7.0 aqueous buffered solutions indicate that the NO response is direct, rapid, and specific.

[3] = Cu(II) binding of FL5 (UV-vis titration with CuCl2; fluorescence quenching); conditions: 1 μM FL5 solution, 37° C.
Experimental: Derivatized fluorescein molecules are excellent biosensors because they excite and emit in a region of the visible spectrum that is relatively free of interference. We prepared the fluorescein-based ligand FL5 (FIG. 4) by reacting 7′-chloro-4′-fluorescein-carboxaldehyde with 8-aminoquinaldine. We generated the Cu(II) fluorescein-based NO probe Cu(FL5) (FIG. 4) in situ reacting FL5 (prepared as described below) awith CuCl2 in a 1:1 ratio in buffered aqueous solution (50 mM PIPES, pH 7.0, 100 mM KCl). […] A Job's plot was constructed to evaluate the nature of the FL5:Cu(II) complex by following the UV-vis absorption spectral change at 512 nm in pH 7.0 buffered solution. A break at 0.5 indicated the formation of a 1:1 complex.
The fluorescence of a 1 μM FL5 solution was diminished by 18±3% upon introduction of an equimolar quantity of CuCl2 at 37° C. Addition of excess NO to a buffered aqueous Cu(FL5) solution led to an immediate 11.2±1.5-fold increase in fluorescence (FIG. 5). […] The lower detection limit for NO is 5 nM.

Quantum yield = format: physicochemical
Description: Quantum yield may be obtained by comparison of the integrated area of the corrected emission spectrum of the sample with that of a reference solution. A preferred reference solution is a solution of fluorescein in 0.1 N NaOH, quantum efficiency 0.95. The concentration of the reference is adjusted to match the absorbance of the test sample. The quantum yields may be calculated using the following equation.
Upon addition of excess NO, a 499 nm peak in the UV-vis spectrum of Cu(FL5) in pH 7.0 buffered solution red-shifted back to the λmax characteristic of FL5 or the synthetic FL5−NO compound (504 nm), which differs from the band formed in the reaction of FL5 with 1 equivalent of Cu(I) added as [Cu(CH3CN)4](BF4) (506 nm). […] In addition, the spectrum of the NO reaction solution closely resembled that of the monoanionic fluorescein formed by lowering the pH from 7.0 to 5.0. […] These values are in the range previously reported for N-nitrosamines. The presence of two separate chemical shifts might arise from different isomers in solution, the Δδ of 2.29 being similar to that of previously reported of N-nitrosamines. […] Lastly, FL5−NO is brighter than FL5 or Cu(FL5), the respective quantum yields being ΦFL-NO=0.58±0.02 and ΦFL=0.077±0.002.

| fluorescence diminished upon introduction of equimolar CuCl2 [3] [%] | quantum yield Φ (Quantum yield) | SMILES | fluorescence in HeLa cells co-treated with 17β-estradiol (HeLa cells; 17β-estradiol (100 nM), Cu(FL5) (1 μM)) | turn-on fluorescence emission in HeLa cells treated with LPS and IFN-γ (HeLa cells; LPS and IFN-γ prior to Cu(FL5) incubation) | fluorescence response in co-culture [1] | viable cells (MTT), cell line not specified (SK-N-SH cells; 1 μM Cu(FL5), after 5 days) [%] | survival of SK-N-SH cells (MTT) (SK-N-SH cells; 5 days of incubation, Cu(FL5) 1 μM) [%] | survival of Raw 264.7 cells (MTT) (Raw 264.7 cells) [%] | passage through cell membranes [2] |
| --- | --- | --- | --- | --- | --- | --- | --- | --- | --- |
|  |  | Cc1ccc2cccc(NCc3c([O][Cu][Cl])ccc4c(-c5ccccc5C(=O)O)c5cc(Cl)c(=O)cc-5oc34)c2n1 [Cu(FL5)] | absence of turn-on emission | not observed | fluorescence increase was observed exclusively in the SK-N-SH cells | > 80 | 80±9 | 90±3 | readily passes through cell membranes |
| 18±3 | 0.077±0.002 | Cc1ccc2cccc(NCc3c(O)ccc4c(-c5ccccc5C(=O)O)c5cc(Cl)c(=O)cc-5oc34)c2n1 [FL5, 2-{2-chloro-6-hydroxy-5-[(2-methyl-quinolin-8-ylamino)-methyl]-3-oxo-3H-xanthen-9-yl}-benzoic acid] |  |  |  |  |  |  |  |
